Measured values reported in patent publication US5872148A, “Compositions useful as a cannabinoid receptor probe” (University of Connecticut, priority 1995, dated 1999).

Assays:
cannabinoid receptor [1] = target: T1, cannabinoid receptor (Rattus norvegicus, UniProt P20272); test: Receptor binding assay, [^3 H]CP-55,940, rat forebrain membrane, Tris buffer with bovine serum albumin; conditions: for affinity for the cannabinoid receptor (in words): demonstrated by IC50 values; for IC50: rat forebrain membrane, 0.8 nM [^3 H]CP-55,940, 0.1% bovine serum albumin, pH 7.4, 1 hour at 30° C.
T1 construct: membrane preparations from rat forebrains; from tissue; host or cells: rat forebrain membranes
Experimental: The affinity of compositions of this invention for cannabinoid binding sites was tested by using membrane preparations from rat forebrains. A composition is tested by incubating various concentrations of the composition with approximately 50 μg of rat forebrain membrane, 20 mM Tris Buffer, 3 mM MgCl2, 1 mM EDTA (pH, 7.4) containing 0.1% bovine serum albumin, and 0.8 nM of the cannabinoid radioligand [^3 H]CP-55,940, (Dupont-NEN). Assays were incubated in Regisil-treated test tubes for 1 hour at 30° C. and were subsequently filtered on GF/C filters using a Brandell M-24 Cell Harvester. Following four washes with 20 mM Tris buffer (pH 7.4) and 3 mM MgCl2, the GF/C filters were collected, and shaken for 1 hour with 2 mL of 0.1% SDS. Ligand binding was counted on a Beckman liquid scintillation counter.
Non-specific binding was assessed from tubes containing 250 nM desacetyllevo-nantradol by the method described in W. A. Devane et al., Determination and Characterization of a Cannabinoid Receptor in Rat Brain, Mol. Pharmacol., 34:605 (1988). Data were collected from 3 experiments performed on 11-hydroxy-7'-azido-1',1'-dimethylheptyl-Δ^8 -THC and on 11-hydroxy-7'-isothiocyanate-1',1'-dimethyl-heptyl-Δ^8 -THC, each.

cannabinoid receptor [2] = target: T1, cannabinoid receptor; test: Receptor inactivation test (equilibration / photoirradiation), rat forebrain membranes; format: binding; conditions: 1 hour at 30° C., azide: UV irradiated 13 minutes, washed
Experimental: The ability of affinity ligands to inactivate the cannabinoid receptor in vitro was tested through photoirradiation experiments. All procedures involving affinity ligands were conducted in the dark using only a safety light. Rat forebrain membranes (1-3 mg) in 20 mM Tris Buffer, 3 mM MgCl2, and 1 mM EDTA (pH 7.4) were incubated with an appropriate amount of either 11-hydroxy-7'-azido-1',1'-dimethylheptyl-Δ^8 -THC or 11-hydroxy-7'-isothiocyanate-1',1'-dimethyl-heptyl-Δ^8 -THC, in a six-well culture plate for 1 hour at 30° C. At the end of the equilibration membranes incubated with 11-hydroxy-7'-azido-1',1'-dimethylheptyl-Δ^8 -THC were placed on ice and irradiated for 13 minutes with UV light. Membranes incubated with either of the two compounds were then pelleted using a bench top microcentrifuge. The pellets were subsequently washed at least three times with the working buffer containing 1 mg/mL bovine serum albumin, allowing at least 10 minutes between each wash for equilibration. The final pellets were resuspended in the working buffer and assayed for cannabinoid binding activity by the method of Devane et al., referenced above.

[3] = tested on: male ICR (Institute of Cancer Research) mice; test: Hypothermia in mice; format: in vivo; conditions: for ED50: Mus musculus, read-out: Hypothermia (Δtemperature), potency (ED50 value); for ED50 / Hypothermia (Δtemperature), efficacy (maximum effect): intravenous injection, mice
Experimental: (§1) 5'-azido-THC was evaluated in vivo and compared to the parent compound (-)-Δ^8 -THC for cannabimimetic activity. Both analogs were tested in male ICR (Institute of Cancer Research) mice (Harlan, Frederick, Md.) following intravenous injection, for their abilities to produce sedation (decreased locomotor activity) and catalepsy (induction of ring immobility) as measures of drug-induced behavioral effects. They were also evaluated in the same mice for their abilities to produce hypothermia and antinociceptive activity in the mouse tail-flick assay.
(§2) The results obtained are shown in Table I. Dose-response data were analyzed statistically by ANOVA, and the potency (ED50 value) and efficacy (maximum effect) were determined. The maximum effects given represent percent inhibition (of locomotor activity), ° C. (of hypothermia), percent immobility (of catalepsy) and percent MPE (maximum possible effect of latency of antiociception procedure).
(§3) This evaluation was performed by methods described in M. D. Compton et al., J. Med. Chem., 34:3310 (1991), A. Makriyannis et al., Life Sci., 47:2173 (1990), and A. Charalandous et al., Pharmacol. Biochem. Behav., 40:509 (1991).

[4] = tested on: male ICR (Institute of Cancer Research) mice; test: Catalepsy (induction of ring immobility) in mice; format: in vivo; conditions: for ED50: Mus musculus, read-out: Catalepsy Immobility, potency (ED50 value); for ED50 / Catalepsy Immobility, efficacy (maximum effect), percent immobility: intravenous injection, mice
Experimental: as §1, §2, §3

[5] = tested on: male ICR (Institute of Cancer Research) mice; test: Sedation (decreased locomotor activity) in mice; format: in vivo; conditions: intravenous injection; for ED50: Mus musculus, read-out: Locomotion Inhibition, potency (ED50 value)
Experimental: as §1, §2, §3

[6] = tested on: male ICR (Institute of Cancer Research) mice; test: Antinociceptive activity in the mouse tail-flick assay; format: in vivo; conditions: intravenous injection; for ED50: Mus musculus, read-out: Antinociception MPE, potency (ED50 value)
Experimental: as §1, §2, §3

cannabinoid receptor [7] = target: T1, cannabinoid receptor; test: Alternate affinity test, [^3 H]CP-55,940, rat forebrain membrane, potassium diethyl malonate buffer with β-cyclodextrin; format: binding; conditions: 100 fmol/mL [^3 H]CP-55,940, 0.01% β-cyclodextrin, pH 7.4, 1 hour at 30° C.
Experimental: An alternate affinity test used approximately 30 μg of rat forebrain membrane in a buffer containing 20 mM potassium diethyl malonate (pH 7.4), 3 mM MgCl2, 0.01% β-cyclodextrin, and 100 fmol/mL [^3 H]CP-55,940, (Dupont-NEN). The assays were incubated in Regisil-treated test tubes for 1 hour at 30° C. and were subsequently filtered on GF/C filters. Just prior to filtration, 200 μL of 50 mg/mL bovine serum albumin is added. Following filtration, ligand binding was counted on a Beckman liquid scintillation counter.
Non-specific binding was assessed from tubes containing 100 nM desacetyllevo-nantradol by the method described in W. A. Devane et al., Determination and Characterization of a Cannabinoid Receptor in Rat Brain, Mol. Pharmacol., 34:605 (1988).

cannabinoid receptor [8] = target: T1, cannabinoid receptor; test: Alternate receptor inactivation test (equilibration and UV irradiation), rat forebrain membrane; format: binding; conditions: 1 hour at 30° C., shortwave UV light
Experimental: In an alternate receptor inactivation test, 0.5-3 mg of rat forebrain membrane was incubated with (-)5'-azido-Δ^8 -THC, previously resuspended in 5% β-cyclodextrin in 12-well tissue culture plates containing 1 mL of 20 mM potassium diethyl malonate (pH 7.4) and 0.01% β-cyclodextrin. The assay was incubated for 1 hour at 30° C. and then was placed on ice and irradiated for 13 minutes with shortwave UV light from a UVGL-25 mineralight at 10 cm distance […].

[9] = milligram/kilogram basis, vs (-)-Δ^8 -THC

T1 sequence (P20272 whole entry): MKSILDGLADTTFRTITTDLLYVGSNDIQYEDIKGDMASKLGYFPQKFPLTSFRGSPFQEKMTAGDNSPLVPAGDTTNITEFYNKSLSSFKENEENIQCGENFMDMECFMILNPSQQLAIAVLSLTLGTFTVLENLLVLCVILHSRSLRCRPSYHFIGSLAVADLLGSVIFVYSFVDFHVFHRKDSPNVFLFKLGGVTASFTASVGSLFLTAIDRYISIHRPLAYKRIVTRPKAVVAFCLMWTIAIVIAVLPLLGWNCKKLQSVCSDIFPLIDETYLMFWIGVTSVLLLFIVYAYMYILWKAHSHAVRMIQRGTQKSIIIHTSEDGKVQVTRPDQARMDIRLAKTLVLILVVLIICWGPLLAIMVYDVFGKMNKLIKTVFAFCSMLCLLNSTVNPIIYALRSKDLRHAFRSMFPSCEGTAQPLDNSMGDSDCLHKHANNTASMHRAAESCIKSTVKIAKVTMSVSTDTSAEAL

CC(C)(CCCCCCN=[N+]=[N-])c1cc(O)c2c(c1)OC(C)(C)[C@@H]1CC=C(CO)C[C@@H]21 [11-hydroxy-7'-azido-1',1'-dimethylheptyl-Δ^8 -THC]
affinity for the cannabinoid receptor (in words) (cannabinoid receptor [1]): high affinity
IC50 (cannabinoid receptor [1]): 2.5 nM
ability to inactivate the cannabinoid receptor in vitro (cannabinoid receptor [2]): completely inactivate the cannabinoid receptor

CCCCCc1cc(O)c2c(c1)OC(C)(C)[C@@H]1CC=C(C)C[C@@H]21 [(-)-Δ^8 -THC, reference compound]
ED50 [3]: 15.5 mg/kg
Hypothermia (Δtemperature), efficacy (maximum effect) [3]: -5.9 °C
ED50 [4]: 5.2 mg/kg
Catalepsy Immobility, efficacy (maximum effect), percent immobility [4]: 58%
ED50 [5]: 1.9 mg/kg
Locomotion Inhibition, efficacy (maximum effect), percent inhibition [5]: 79%
ED50 [6]: 1.5 mg/kg
Antinociception, efficacy (maximum effect), percent MPE (maximum possible effect) [6]: 100%

CC(C)(CCCCCCN=C=S)c1cc(O)c2c(c1)OC(C)(C)[C@@H]1CC=C(CO)C[C@@H]21 [11-hydroxy-7'-isothiocyanate-1',1'-dimethylheptyl-Δ^8 -THC]
affinity for the cannabinoid receptor (in words) (cannabinoid receptor [1]): high affinity
IC50 (cannabinoid receptor [1]): 1.5 nM
ability to inactivate the cannabinoid receptor in vitro (cannabinoid receptor [2]): completely inactivate the cannabinoid receptor

CC1=CC[C@@H]2[C@@H](C1)c1c(O)cc(CCCCCN=[N+]=[N-])cc1OC2(C)C [(-)5'-azido-Δ^8 -THC]
ED50 [3]: 0.8 mg/kg
Hypothermia (Δtemperature), efficacy (maximum effect) [3]: -3.8 °C
times more potent than the parent compound (hypothermia) [3, 9]: 19 times
ED50 [4]: 0.8 mg/kg
Catalepsy Immobility, efficacy (maximum effect), percent immobility [4]: 57%
times more potent than the parent compound (catalepsy) [4, 9]: 6.5 times
ED50 [5]: 0.2 mg/kg
Locomotion Inhibition, efficacy (maximum effect), percent inhibition [5]: 73%
ED50 [6]: 0.1 mg/kg
Antinociception, efficacy (maximum effect), percent MPE (maximum possible effect) [6]: 100%
IC50 (cannabinoid receptor [7]): 31 nM
irreversible inactivation of the receptors (cannabinoid receptor [8]): did not irreversibly inactivate the receptors
specific receptor binding in equilibrated and irradiated membranes (cannabinoid receptor [8]): no specific receptor binding was observed
